This note sets out measurements from US12582722B2, “Bifunctional compounds for degrading BTK via ubiquitin proteosome pathway” (NURIX THERAPEUTICS, INC., priority 2019, dated 2026).

The target in the assay is T1, BTK (Homo sapiens, UniProt Q06187).
T1 construct: endogenous in cells; host or cells: Ramos (ATCC CRL-1596)
T1 sequence (Q06187 whole entry): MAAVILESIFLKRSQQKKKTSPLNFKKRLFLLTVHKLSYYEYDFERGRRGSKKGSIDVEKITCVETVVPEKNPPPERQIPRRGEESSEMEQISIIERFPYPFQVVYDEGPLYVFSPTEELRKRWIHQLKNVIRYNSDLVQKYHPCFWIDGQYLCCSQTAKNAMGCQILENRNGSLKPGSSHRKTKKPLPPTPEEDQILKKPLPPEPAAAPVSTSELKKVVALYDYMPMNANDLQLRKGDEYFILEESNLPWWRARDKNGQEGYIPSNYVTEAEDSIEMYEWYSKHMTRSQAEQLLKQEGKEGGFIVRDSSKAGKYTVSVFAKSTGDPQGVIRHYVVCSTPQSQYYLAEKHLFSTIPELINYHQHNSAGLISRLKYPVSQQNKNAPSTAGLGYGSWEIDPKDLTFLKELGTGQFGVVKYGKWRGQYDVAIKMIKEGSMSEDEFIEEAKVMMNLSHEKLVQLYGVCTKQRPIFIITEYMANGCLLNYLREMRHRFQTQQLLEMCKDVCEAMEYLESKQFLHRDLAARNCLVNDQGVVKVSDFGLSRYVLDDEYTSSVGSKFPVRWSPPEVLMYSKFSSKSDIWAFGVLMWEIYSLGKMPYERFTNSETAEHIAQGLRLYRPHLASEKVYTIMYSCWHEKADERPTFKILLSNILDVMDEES
The assay can be described thus: Cellular BTK HTRF Assay (BTK degradation in Ramos cells). In kind it is cell-based. The conditions noted are these: four hours incubation, 37° C., BTK levels relative to DMSO-treated cells. The method, then: Ramos (CRL-1596) cells were obtained from American Type Culture Collection and were grown in RPMI-1640 media (ATCC, 30-2001) supplemented with 10% heat-inactivated FBS (Corning Premium Fetal Bovine Serum from Fisher, MT35015CV).
Compounds of the present invention were added to 50,000 Ramos cells in round-bottom 96 well plates with a final DMSO concentration of […] and were incubated at 37° C., 5% CO2 for four hours. BTK levels were determined using Cisbio Total-BTK HTRF ([…] Time-Resolved Fluorescence) kit (63ADK064PEG) according to manufacturer's protocol. Briefly, cells were incubated in 1× supplied lysis buffer for 30 minutes. In an opaque white low volume 96 well plate (Cisbio, 66PL96005), cell lysate was combined with two different specific BTK antibodies, one conjugated with Eu^3+-Cryptate FRET donor and one conjugated with d2 FRET acceptor. Assay controls include wells containing cell lysate with only the Eu^3+-Cryptate FRET donor antibody and wells containing both HTRF antibodies and lysis buffer without cells or control lysate provided by Cisbio. HTRF ratio was calculated as (acceptor signal at 665 nm/donor signal at 620 nm)×10^4. Background HTRF levels were determined from the control well containing the donor, but no acceptor, antibody. Background HTRF levels were subtracted from all samples. Readouts were reported as HTRF levels relative to HTRF levels of DMSO-treated cells. Four-parameter non-linear regressions were performed in GraphPad Prism 7.02 to obtain DC50 values. DC50 values are provided in Table 3, wherein A<7.5 nM, 7.5 nM≤B≤50 nM, and 50 nM<C<500 nM.
For orientation: In TR-FRET formats the signal depends on donor and acceptor labels being close together.
Regarding `CS(=O)(=O)c1ccc(Nc2nc(N3CCC[C@@H](NC(=O)[C@H]4[C@@H]5CN(CC6CCN(c7ccc8c(c7)C(=O)N(C7CCC(=O)NC7=O)C8=O)CC6)C[C@@H]54)C3)cnc2C(N)=O)cc1` (stereo partly drawn) [Compound 33, (1R,5S,6r)-N—((R)-1-(5-carbamoyl-6-((4-(methylsulfonyl)phenyl)amino)pyrazin-2-yl)piperidin-3-yl)-3-((1-(2-(2,6-dioxopiperidin-3-yl)-1,3-dioxoisoindolin-5-yl)piperidin-4-yl)methyl)-3-azabicyclo[3.1.0]hexane-6-carboxamide], the DC50 was under 7.5 nM.
Take `Cc1cc(Nc2nc(N3CCC[C@@H](NC(=O)N4CCC5(CC4)CCN(c4ccc6c(c4)C(=O)N(C4CCC(=O)NC4=O)C6=O)CC5)C3)cnc2C(N)=O)sn1` (stereo partly drawn) [Compound 12, N-[(3R)-1-{5-carbamoyl-6-[(3-methyl-1,2-thiazol-5-yl)amino]pyrazin-2-yl}piperidin-3-yl]-9-[2-(2,6-dioxopiperidin-3-yl)-1,3-dioxoisoindol-5-yl]-3,9-diazaspiro[5.5]undecane-3-carboxamide]: the half-maximal degradation concentration (DC50) lay within 7.5 to 50 nM.
In turn, `Cc1cc(Nc2nc(N3CCC[C@@H](NC(=O)C4CCN(C5CN(Cc6ccc7c(c6)C(=O)N(C6CCC(=O)NC6=O)C7=O)C5)CC4)C3)cnc2C(N)=O)sn1` (stereo partly drawn) [Compound 37, 5-[(3R)-3-[1-(1-{[2-(2,6-dioxopiperidin-3-yl)-1,3-dioxoisoindol-5-yl]methyl}azetidin-3-yl)piperidine-4-amido]piperidin-1-yl]-3-[(3-methyl-1,2-thiazol-5-yl)amino]pyrazine-2-carboxamide] had a DC50 of under 7.5 nM.
Take `CS(=O)(=O)c1ccc(Nc2nc(N3CCC[C@@H](NC(=O)OCCC4CCN(c5ccc6c(c5)C(=O)N(C5CCC(=O)NC5=O)C6=O)CC4)C3)cnc2C(N)=O)cc1` (stereo partly drawn) [Compound 6, 2-(1-(2-(2,6-dioxopiperidin-3-yl)-1,3-dioxoisoindolin-5-yl)piperidin-4-yl)ethyl ((R)-1-(5-carbamoyl-6-((4-(methylsulfonyl)phenyl)amino)pyrazin-2-yl)piperidin-3-yl)carbamate]: the DC50 is 7.5 to 50 nM.
`CS(=O)(=O)c1ccc(Nc2nc(N3CCC[C@@H](NC(=O)N4CC5(CN(Cc6ccc7c(c6)C(=O)N(C6CCC(=O)NC6=O)C7=O)C5)C4)C3)cnc2C(N)=O)cc1` (stereo partly drawn) [Compound 25, N-[(3R)-1-{5-carbamoyl-6-[(4-methanesulfonylphenyl)amino]pyrazin-2-yl}piperidin-3-yl]-6-{[2-(2,6-dioxopiperidin-3-yl)-1,3-dioxoisoindol-5-yl]methyl}-2,6-diazaspiro[3.3]heptane-2-carboxamide] had a DC50 of 7.5 to 50 nM.
To `CS(=O)(=O)c1ccc(Nc2nc(N3CCC[C@@H](NC(=O)C4CC5CCC(C4)N5C4CCN(c5ccc6c(c5)C(=O)N(C5CCC(=O)NC5=O)C6=O)CC4)C3)cnc2C(N)=O)cc1` (stereo partly drawn) [Compound 41, N-[(3R)-1-{5-carbamoyl-6-[(4-methanesulfonylphenyl)amino]pyrazin-2-yl}piperidin-3-yl]-8-{1-[2-(2,6-dioxopiperidin-3-yl)-1,3-dioxoisoindol-5-yl]piperidin-4-yl}-8-azabicyclo[3.2.1]octane-3-carboxamide] belongs 50 to 500 nM; to `CS(=O)(=O)c1ccc(Nc2nc(N3CCC[C@@H](NC(=O)N4CC5(C4)CN(c4ccc6c(c4)C(=O)N(C4CCC(=O)NC4=O)C6=O)C5)C3)cnc2C(N)=O)cc1` (stereo partly drawn) [Compound 24, N-[(3R)-1-{5-carbamoyl-6-[(4-methanesulfonylphenyl)amino]pyrazine-2-yl}piperidin-3-yl]-6-[2-(2,6-dioxopiperidin-3-yl)-1,3-dioxoisoindol-5-yl]-2,6-diazaspiro[3.3]heptane-2-carboxamide], 7.5 to 50 nM.
In turn, `Cn1cc(Nc2nc(N3CCC[C@@H](N4CC5(CN(C6CCN(c7ccc8c(c7)C(=O)N(C7CCC(=O)NC7=O)C8=O)CC6)C5)OC4=O)C3)cnc2C(N)=O)cn1` (stereo partly drawn) [Compound 44, 5-[(3R)-3-(2-{1-[2-(2,6-dioxopiperidin-3-yl)-1,3-dioxoisoindol-5-yl]piperidin-4-yl}-6-oxo-5-oxa-2,7-diazaspiro[3.4]octan-7-yl)piperidin-1-yl]-3-[(1-methylpyrazol-4-yl)amino]pyrazine-2-carboxamide] returned a DC50 of under 7.5 nM.
Turning to `Cc1cc(Nc2nc(N3CCC[C@@H](NC(=O)C4CCN(C5CCN(c6ccc7c(c6)C(=O)N(C6CCC(=O)NC6=O)C7=O)CC5)CC4)C3)cnc2C(N)=O)sn1` (stereo partly drawn) [Compound 39, N—((R)-1-(5-carbamoyl-6-((3-methylisothiazol-5-yl)amino)pyrazin-2-yl)piperidin-3-yl)-1′-(2-(2,6-dioxopiperidin-3-yl)-1,3-dioxoisoindolin-5-yl)-[1,4′-bipiperidine]-4-carboxamide], the DC50 is under 7.5 nM.
Then `CS(=O)(=O)c1ccc(Nc2nc(N3CCC[C@@H](NC(=O)OCCCCCCCOc4ccc5c(c4)C(=O)N(C4CCC(=O)NC4=O)C5=O)C3)cnc2C(N)=O)cc1` (stereo partly drawn) [Compound 3, 7-((2-(2,6-dioxopiperidin-3-yl)-1,3-dioxoisoindolin-5-yl)oxy)heptyl ((R)-1-(5-carbamoyl-6-((4-(methylsulfonyl)phenyl)amino)pyrazin-2-yl)piperidin-3-yl)carbamate], with 7.5 to 50 nM; and `CS(=O)(=O)c1ccc(Nc2nc(N3CCC[C@@H](NC(=O)OC[C@@H]4CCN(c5ccc6c(c5)C(=O)N(C5CCC(=O)NC5=O)C6=O)C4)C3)cnc2C(N)=O)cc1` (stereo partly drawn) [Compound 9, ((3R)-1-(2-(2,6-dioxopiperidin-3-yl)-1,3-dioxoisoindolin-5-yl)pyrrolidin-3-yl)methyl ((R)-1-(5-carbamoyl-6-((4-(methylsulfonyl)phenyl)amino)pyrazin-2-yl)piperidin-3-yl)carbamate], with 50 to 500 nM; and `Cn1cc(Nc2nc(N3CCC[C@@H](N4CCC5(CCN(CC6CN(c7ccc8c(c7)C(=O)N(C7CCC(=O)NC7=O)C8=O)C6)CC5)C4=O)C3)cnc2C(N)=O)cn1` (stereo partly drawn) [Compound 50, 5-[(3R)-3-[8-({1-[2-(2,6-dioxopiperidin-3-yl)-1,3-dioxoisoindol-5-yl]azetidin-3-yl}methyl)-1-oxo-2,8-diazaspiro[4.5]decan-2-yl]piperidin-1-yl]-3-[(1-methylpyrazol-4-yl)amino]pyrazine-2-carboxamide], with under 7.5 nM.
Take `CS(=O)(=O)c1ccc(Nc2nc(N3CCC[C@@H](NC(=O)N4CCC5(CC4)CN(c4ccc6c(c4)C(=O)N(C4CCC(=O)NC4=O)C6=O)C5)C3)cnc2C(N)=O)cc1` (stereo partly drawn) [Compound 28, N—((R)-1-(5-carbamoyl-6-((4-(methylsulfonyl)phenyl)amino)pyrazine-2-yl)piperidin-3-yl)-2-(2-(2,6-dioxopiperidin-3-yl)-1,3-dioxoisoindolin-5-yl)-2,7-diazaspiro[3.5]nonane-7-carboxamide]: the DC50 lay in the range of 7.5 to 50 nM.
In turn, `CS(=O)(=O)c1ccc(Nc2nc(N3CCC[C@@H](NC(=O)CCCCCCc4cccc5c4CN(C4CCC(=O)NC4=O)C5=O)C3)cnc2C(N)=O)cc1` (stereo partly drawn) [Compound 5, 5-[(3R)-3-{7-[2-(2,6-dioxopiperidin-3-yl)-1-oxo-3H-isoindol-4-yl]heptanamido}piperidin-1-yl]-3-[(4-methanesulfonylphenyl)amino]pyrazine-2-carboxamide] yielded a DC50 of 50 to 500 nM.
Take `Cc1cc(Nc2nc(N3CCC[C@@H](NC(=O)N4CCN(CC5CCN(c6ccc7c(c6)C(=O)N(C6CCC(=O)NC6=O)C7=O)CC5)CC4)C3)cnc2C(N)=O)sn1` (stereo partly drawn) [Compound 23, 5-[(3R)-3-[4-({1-[2-(2,6-dioxopiperidin-3-yl)-1,3-dioxoisoindol-5-yl]piperidin-4-yl}methyl)piperazine-1-carbonylamino]piperidin-1-yl]-3-[(3-methyl-1,2-thiazol-5-yl)amino]pyrazine-2-carboxamide]: the DC50 is under 7.5 nM.
Then `CS(=O)(=O)c1ccc(Nc2nc(N3CCC[C@@H](NC(=O)C4CCC5(CC4)CCN(Cc4ccc6c(c4)C(=O)N(C4CCC(=O)NC4=O)C6=O)CC5)C3)cnc2C(N)=O)cc1` (stereo partly drawn) [Compound 31, N—((R)-1-(5-carbamoyl-6-((4-(methylsulfonyl)phenyl)amino)pyrazin-2-yl)piperidin-3-yl)-3-((2-(2,6-dioxopiperidin-3-yl)-1,3-dioxoisoindolin-5-yl)methyl)-3-azaspiro[5.5]undecane-9-carboxamide], with under 7.5 nM.
To `CS(=O)(=O)c1ccc(Nc2nc(N3CCC[C@@H](NC(=O)C4CN(CC5CCN(c6ccc7c(c6)C(=O)N(C6CCC(=O)NC6=O)C7=O)CC5)C4)C3)cnc2C(N)=O)cc1` (stereo partly drawn) [Compound 30, 5-((3R)-3-(1-((1-(2-(2,6-dioxopiperidin-3-yl)-1,3-dioxoisoindolin-5-yl)piperidin-4-yl)methyl)azetidine-3-carboxamido)piperidin-1-yl)-3-((4-(methylsulfonyl)phenyl)amino)pyrazine-2-carboxamide] belongs 7.5 to 50 nM.
Then `Cn1cc(Nc2nc(N3CCC[C@@H](NC(=O)C4CCN(CC5CCN(c6ccc7c(c6)C(=O)N(C6CCC(=O)NC6=O)C7=O)CC5)CC4)C3)cnc2C(N)=O)cn1` (stereo partly drawn) [Compound 21, 5-((3R)-3-(1-((1-(2-(2,6-dioxopiperidin-3-yl)-1,3-dioxoisoindolin-5-yl)piperidin-4-yl)methyl)piperidine-4-carboxamido)piperidin-1-yl)-3-((1-methyl-1H-pyrazol-4-yl)amino)pyrazine-2-carboxamide], with under 7.5 nM.

One may read the DC50 as the concentration at which degradation of the target reaches its halfway point.
